What was measured:
Format in all cases: in vivo
Nightshade = test: Test C preemergence
Source text: (§1) Seeds of plant species selected from bermudagrass (Cynodon dactylon), Surinam grass (Brachiaria decumbens), cocklebur (Xanthium strumarium), corn (Zea mays), crabgrass (Digitaria sanguinalis), woolly cupgrass (Eriochloa villosa), giant foxtail (Setaria faberii), goosegrass (Eleusine indica), johnsongrass (Sorghum halepense), kochia (Kochia scoparia), lambsquarters (Chenopodium album), morningglory (Ipomoea hederacea), yellow nutsedge (Cyperus esculentus), pigweed (Amaranthus retroflexus), common ragweed (Ambrosia elatior), soybean (Glycine max) and velvetleaf (Abutilon theophrasti) were planted and treated preemergence with test chemicals formulated in a non-phytotoxic solvent mixture which included a surfactant.
(§2) At the same time, plants selected from these crop and weed species and also winter barley (Hordeum vulgare), blackgrass (Alopecurus myosuroides), canary grass (Phalaris minor), chickweed (Stellaria media), downy brome (Bromus tectorum), green foxtail (Setaria viridis), Italian ryegrass (Lolium multiflorum), wheat (Triticum aestivum), wild oat (Avena fatua) and windgrass (Apera spica-venti) were treated with postemergence applications of some of the test chemicals formulated in the same manner. Plants ranged in height from 2 to 18 cm (1- to 4-leaf stage) for postemergence treatments. Plant species in the flooded paddy test consisted of rice (Oryza saliva), smallflower flatsedge (Cyperus difformis), duck salad (Heteranthera limosa) and barnyardgrass (Echinochloa crus-galli) grown to the 2-leaf stage for testing. Treated plants and controls were maintained in a greenhouse for 12 to 14 days, after which time all species were compared to controls and visually evaluated. Plant response ratings, summarized in Table C, are based on a scale of 0 to 100 where 0 is no effect and 100 is complete control. A dash (-) response means no test result.

Sunflower = test: Test C preemergence
Source text: as §1, §2

[1] = test system: Surinam grass (Brachiaria decumbens); test: Test C preemergence
Source text: as §1, §2

[2] = test system: bermudagrass (Cynodon dactylon); test: Test C preemergence
Source text: as §1, §2

[3] = test system: cocklebur (Xanthium strumarium); test: Test C preemergence
Source text: as §1, §2

corn (Zea mays) = test: Test C preemergence
Source text: as §1, §2

[4] = test system: crabgrass (Digitaria sanguinalis); test: Test C preemergence
Source text: as §1, §2

[5] = test system: giant foxtail (Setaria faberii); test: Test C preemergence
Source text: as §1, §2

[6] = test system: goosegrass (Eleusine indica); test: Test C preemergence
Source text: as §1, §2

[7] = test system: johnsongrass (Sorghum halepense); test: Test C preemergence
Source text: as §1, §2

kochia (Kochia scoparia) = test: Test C preemergence
Source text: as §1, §2

[8] = test system: lambsquarters (Chenopodium album); test: Test C preemergence
Source text: as §1, §2

[9] = test system: morningglory (Ipomoea hederacea); test: Test C preemergence
Source text: as §1, §2

[10] = test system: pigweed (Amaranthus retroflexus); test: Test C preemergence
Source text: as §1, §2

soybean (Glycine max) = test: Test C preemergence
Source text: as §1, §2

[11] = test system: velvetleaf (Abutilon theophrasti); test: Test C preemergence
Source text: as §1, §2

[12] = test system: woolly cupgrass (Eriochloa villosa); test: Test C preemergence
Source text: as §1, §2

[13] = test system: yellow nutsedge (Cyperus esculentus); test: Test C preemergence
Source text: as §1, §2

[14] = test system: barnyardgrass (Echinochloa crus-galli); test: Test C flooded paddy test; details: for Barnyardgrass plant response rating: Flooded Paddy, scale 0 to 100, 0 no effect, 100 complete control; for Plant response rating, Barnyardgrass: flooded paddy test, scale 0 to 100 (0 no effect, 100 complete control)
Procedure, shortened: (§3)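 Plants were grown to the 2-leaf stage under flooded paddy conditions and treated. They were then kept in a greenhouse for 12 to 14 days and visually rated against untreated controls on a 0–100 scale, where 0 is no effect and 100 is complete control.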

[15] = test system: duck salad (Heteranthera limosa); test: Test C flooded paddy test; details: for Ducksalad plant response rating: Flooded Paddy, scale 0 to 100, 0 no effect, 100 complete control; for Plant response rating, Ducksalad: flooded paddy test, scale 0 to 100 (0 no effect, 100 complete control)
Procedure, shortened: as §3

[16] = test system: smallflower flatsedge (Cyperus difformis); test: Test C flooded paddy test; details: for Flatsedge plant response rating: Flooded Paddy, scale 0 to 100, 0 no effect, 100 complete control; for Plant response rating, Flatsedge: flooded paddy test, scale 0 to 100 (0 no effect, 100 complete control)
Procedure, shortened: as §3

[17] = Rate 62 g/ha, scale 0 to 100, 0 no effect, 100 complete control
[18] = Preemergence, Rate 500 g/ha, scale 0 to 100
[19] = preemergence, Rate 250 g/ha, visual evaluation after 12 to 14 days
[20] = preemergence, Rate 125 g/ha, scale 0 to 100, 0 no effect, 100 complete control

## CCC(C)c1ccn(C2SCN(c3cccc(C(F)(F)F)c3)C2=O)n1 (stereo not drawn) [Compound 20]
Nightshade; [17]
  Plant response rating, Nightshade: 30
Nightshade; Rate 125 g/ha, scale 0 to 100, 0 no effect, 100 complete control
  Plant response rating, Nightshade: 70
Nightshade; Rate 500 g/ha, scale 0 to 100
  Plant response rating, Nightshade: 90
Sunflower; [17]
  Plant response rating, Sunflower: 0
Sunflower; Rate 500 g/ha, scale 0 to 100
  Plant response rating, Sunflower: 70
[1]; [18]
  Plant response rating, Surinam grass: 40
[1]; [17]
  Plant response rating, Surinam grass: 0
[1]; [19]
  Plant response rating (0 to 100), Surinam grass: 0
[1]; [20]
  Plant response rating, Surinam grass: 0
[2]; [18]
  Plant response rating, Bermudagrass: 100
[2]; [17]
  Plant response rating, Bermudagrass: 70
[2]; [19]
  Plant response rating (0 to 100 where 0 is no effect and 100 is complete control), Bermudagrass: 100
[2]; [20]
  Plant response rating, Bermudagrass: 100
[3]; [18]
  Plant response rating, Cocklebur: 50
[3]; [17]
  Plant response rating, Cocklebur: 0
[3]; [19]
  Plant response rating (0 to 100), Cocklebur: 0
[3]; [20]
  Plant response rating, Cocklebur: 0
Corn (Zea mays); [18]
  Plant response rating, Corn: 30
Corn (Zea mays); [17]
  Plant response rating, Corn: 0
Corn (Zea mays); [19]
  Plant response rating (0 to 100), Corn: 30
Corn (Zea mays); [20]
  Plant response rating, Corn: 30
[4]; [18]
  Plant response rating, Crabgrass: 100
[4]; [17]
  Plant response rating, Crabgrass: 0
[4]; [19]
  Plant response rating (0 to 100), Crabgrass: 100
[4]; [20]
  Plant response rating, Crabgrass: 100
[5]; [18]
  Plant response rating, Foxtail, Giant: 0
[5]; [17]
  Plant response rating, Foxtail, Giant: 0
[5]; [19]
  Plant response rating (0 to 100), Foxtail, Giant: 100
[5]; [20]
  Plant response rating, Foxtail, Giant: 0
[6]; [18]
  Plant response rating, Goosegrass: 100
[6]; [17]
  Plant response rating, Goosegrass: 80
[6]; [19]
  Plant response rating (0 to 100), Goosegrass: 100
[6]; [20]
  Plant response rating, Goosegrass: 100
[7]; [18]
  Plant response rating, Johnsongrass: 100
[7]; [17]
  Plant response rating, Johnsongrass: 0
[7]; [19]
  Plant response rating (0 to 100), Johnsongrass: 50
[7]; [20]
  Plant response rating, Johnsongrass: 20
Kochia (Kochia scoparia); [18]
  Plant response rating, Kochia: 100
Kochia (Kochia scoparia); [17]
  Plant response rating, Kochia: 90
Kochia (Kochia scoparia); [19]
  Plant response rating (0 to 100), Kochia: 100
Kochia (Kochia scoparia); [20]
  Plant response rating, Kochia: 100
[8]; [18]
  Plant response rating, Lambsquarters: 100
[8]; [17]
  Plant response rating, Lambsquarters: 90
[8]; [19]
  Plant response rating (0 to 100), Lambsquarters: 100
[8]; [20]
  Plant response rating, Lambsquarters: 100
[9]; [18]
  Plant response rating, Morningglory: 40
[9]; [17]
  Plant response rating, Morningglory: 0
[9]; [19]
  Plant response rating (0 to 100), Morningglory: 40
[9]; [20]
  Plant response rating, Morningglory: 30
[10]; [18]
  Plant response rating, Pigweed: 60
[10]; [17]
  Plant response rating, Pigweed: 0
[10]; [19]
  Plant response rating (0 to 100), Pigweed: 100
[10]; [20]
  Plant response rating, Pigweed: 30
Soybean (Glycine max); [18]
  Plant response rating, Soybean: 60
Soybean (Glycine max); [17]
  Plant response rating, Soybean: 0
Soybean (Glycine max); [19]
  Plant response rating (0 to 100), Soybean: 60
Soybean (Glycine max); [20]
  Plant response rating, Soybean: 0
[11]; [18]
  Plant response rating, Velvetleaf: 20
[11]; [17]
  Plant response rating, Velvetleaf: 0
[11]; [19]
  Plant response rating (0 to 100), Velvetleaf: 20
[11]; [20]
  Plant response rating, Velvetleaf: 0
[12]; [18]
  Plant response rating, Cupgrass, Woolly: 100
[12]; [17]
  Plant response rating, Cupgrass, Woolly: 0
[12]; [19]
  Plant response rating (0 to 100), Cupgrass, Woolly: 90
[12]; [20]
  Plant response rating, Cupgrass, Woolly: 50
[13]; [18]
  Plant response rating, Nutsedge: 50
[13]; [17]
  Plant response rating, Nutsedge: 0
[13]; [19]
  Plant response rating (0 to 100), Nutsedge: 50
[13]; [20]
  Plant response rating, Nutsedge: 0
[14]; Rate 250 g/ha
  Barnyardgrass plant response rating: 100
[14]; Rate 500 g/ha
  Barnyardgrass plant response rating: 100
[14]; Rate 62 g/ha
  Plant response rating, Barnyardgrass: 70
[14]; Rate 125 g/ha
  Plant response rating, Barnyardgrass: 100
[15]; Rate 250 g/ha
  Ducksalad plant response rating: 100
[15]; Rate 500 g/ha
  Ducksalad plant response rating: 100
[15]; Rate 62 g/ha
  Plant response rating, Ducksalad: 100
[15]; Rate 125 g/ha
  Plant response rating, Ducksalad: 100
[16]; Rate 250 g/ha
  Flatsedge plant response rating: 100
[16]; Rate 500 g/ha
  Flatsedge plant response rating: 100
[16]; Rate 62 g/ha
  Plant response rating, Flatsedge: 90
[16]; Rate 125 g/ha
  Plant response rating, Flatsedge: 100

— patent publication US7138361B2, “Herbicidal heterocycles” (E. I. du Pont de Nemours and Company, priority 2000, dated 2006)
